Patent publication US9850203B2, “Autotaxin inhibitor compounds” (PharmAkea, Inc., priority 2013, dated 2017)

Molecular target: human autotaxin (ATX) (Homo sapiens (Human), UniProt Q13822)
Assay: Human Autotaxin Assay
Type: biochemical
Details: concentrated conditioned media from Hep3B cells; LPC substrate, choline release
Description: ATX activity is assayed in concentrated conditioned media from Hep3B human hepatocellular carcinoma cells by measuring the amount of choline released from the substrate, lysophosphatidylcholine (LPC) as it is cleaved to LPA. Conditioned media is collected from confluent Hep3B cells and concentrated 20-fold using Centriprep-30 filter devices (Millipore). To assay for autotaxin inhibition, 10-20 μL of the concentrated conditioned media is incubated with 2.5 μL of a test compound in DMSO and 72.5-82.5 μL lyso-PLD buffer (100 mM Tris pH 9, 500 mM NaCl, 5 mM MgCl2, 5 mM CaCl2, 0.05% Triton X-100 in the presence or absence of 0.2% fatty-acid-free human serum albumin) for 15 min at 37° C. After the 15 min incubation, 5 uL of 2 mM LPC (14:0; Avanti Polar Lipids Cat#855575C) diluted in lyso-PLD buffer is added for a final concentration of 100 uM and the incubation continues for 1.5-3 hours at 37° C.

Row | Structure (SMILES) | IC50 [nM]
1 | Cc1c(Sc2cccc(C(=O)O)c2)c2ccc(Cl)c(F)c2n1CC(=O)N1CCC(Cc2ccc(F)cc2)C1 (single isomer, unassigned; enantiomer a) [Compound 1-65, 3-((6-Chloro-7-fluoro-1-(2-(3-(4-fluorobenzyl)pyrrolidin-1-yl)-2-oxoethyl)-2-methyl-1H-indol-3-yl)thio)benzoic acid Enantiomer A] | ≤ 500
2 | Cc1c(Sc2cccc(C(=O)O)c2)c2ccc(Cl)c(F)c2n1CC(=O)N1CCc2c(F)cc(F)cc21 [Compound 1-70, 3-((6-Chloro-1-(2-(4,6-difluoroindolin-1-yl)-2-oxoethyl)-7-fluoro-2-methyl-1H-indol-3-yl)thio)benzoic acid] | ≤ 500
3 | Cc1c(Sc2cccc(C(=O)O)c2)c2ccc(Cl)c(F)c2n1CC(=O)N1CC(O)(C(F)(F)F)C1 [Compound 1-84, 3-((6-Chloro-7-fluoro-1-(2-(3-hydroxy-3-(trifluoromethyl)azetidin-1-yl)-2-oxoethyl)-2-methyl-1H-indol-3-yl)thio)benzoic acid] | ≤ 500
4 | Cc1c(Sc2cccc(C(=O)O)c2)c2ccc(Cl)c(F)c2n1CC(=O)N1Cc2ccccc2C1 [Compound 1-91, 3-((6-Chloro-7-fluoro-1-(2-(isoindolin-2-yl)-2-oxoethyl)-2-methyl-1H-indol-3-yl)thio)benzoic acid] | ≤ 500
5 | Cc1c(Sc2cccc(C(=O)O)c2)c2ccc(Cl)c(F)c2n1CC(=O)N1CCCC1c1cnn(C)c1 (stereo not drawn) [Compound 1-85, 3-((6-Chloro-7-fluoro-2-methyl-1-(2-(2-(1-methyl-1H-pyrazol-4-yl)pyrrolidin-1-yl)-2-oxoethyl)-1H-indol-3-yl)thio)benzoic acid] | ≤ 500
6 | O=C(O)c1cccc(Sc2c(Cl)n(CCN3CC4(CC4)c4ccccc43)c3c(F)c(Cl)ccc23)c1F [Compound 5-2, Sodium 3-((2,6-dichloro-7-fluoro-1-(2-(spiro[cyclopropane-1,3′-indolin]-1′-yl)ethyl)-1H-indol-3-yl)thio)-2-fluorobenzoate] | ≤ 500
7 | Cc1c(Sc2cccc(C(=O)O)c2)c2ccc(Cl)c(F)c2n1CC(=O)N1CCCC(Cc2ccc(F)cc2)C1 (stereo not drawn) [Compound 1-15, 3-((6-Chloro-7-fluoro-1-(2-(3-(4-fluorobenzyl)piperidin-1-yl)-2-oxoethyl)-2-methyl-1H-indol-3-yl)thio)benzoic acid] | 500 to 3000
8 | Cc1c(Sc2cccc(C(=O)O)c2)c2ccc(Cl)c(F)c2n1CC(=O)N1CCC(CCn2cccn2)CC1 [Compound 1-61, 3-((1-(2-(4-(2-(1H-Pyrazol-1-yl)ethyl)piperidin-1-yl)-2-oxoethyl)-6-chloro-7-fluoro-2-methyl-1H-indol-3-yl)thio)benzoic acid] | ≤ 500
9 | Cc1c(Sc2cccc(C(=O)O)c2)c2ccc(Cl)c(F)c2n1CC(=O)N1CCC(Cc2ccncc2)CC1 [Compound 1-63, 3-((6-Chloro-7-fluoro-2-methyl-1-(2-oxo-2-(4-(pyridin-4-ylmethyl)piperidin-1-yl)ethyl)-1H-indol-3-yl)thio)benzoic acid] | ≤ 500
10 | Cc1c(Sc2cccc(C(=O)O)c2)c2ccc(Cl)c(F)c2n1CC(=O)N1CCC2(CC1)CC(=O)N2 [Compound 1-41, 3-((6-Chloro-7-fluoro-2-methyl-1-(2-oxo-2-(2-oxo-1,7-diazaspiro[3.5]nonan-7-yl)ethyl)-1H-indol-3-yl)thio)benzoic acid] | ≤ 500
11 | Cc1c(Sc2cccc(C(=O)O)c2)c2ccc(Cl)c(F)c2n1CC(=O)N1CCCC2(CNC(=O)C2)C1 (stereo not drawn) [Compound 1-35, 3-((6-Chloro-7-fluoro-2-methyl-1-(2-oxo-2-(3-oxo-2,7-diazaspiro[4.5]decan-7-yl)ethyl)-1H-indol-3-yl)thio)benzoic acid] | ≤ 500
12 | Cc1c(Sc2cccc(C(=O)O)c2)c2ccc(Cl)c(F)c2n1CC(=O)N1CCC(c2ccc(F)cc2)C1 (single isomer, unassigned; enantiomer a) [Compound 1-74, 3-((6-Chloro-7-fluoro-1-(2-(3-(4-fluorophenyl)pyrrolidin-1-yl)-2-oxoethyl)-2-methyl-1H-indol-3-yl)thio)benzoic acid Enantiomer A] | 500 to 3000
